pKd: −log10 of the molar value. Ends that are not written are not given here.
Experiments:
rClfA229-545 = target: T1, rClfA229-545 (Staphylococcus aureus, UniProt Q53653); test: Isothermal titration calorimetry of Fg γ-peptide binding to rClfA229-545
T1 construct: 6xHis; made in house; host or cells: E. coli
T1 sequence (Q53653 229-545): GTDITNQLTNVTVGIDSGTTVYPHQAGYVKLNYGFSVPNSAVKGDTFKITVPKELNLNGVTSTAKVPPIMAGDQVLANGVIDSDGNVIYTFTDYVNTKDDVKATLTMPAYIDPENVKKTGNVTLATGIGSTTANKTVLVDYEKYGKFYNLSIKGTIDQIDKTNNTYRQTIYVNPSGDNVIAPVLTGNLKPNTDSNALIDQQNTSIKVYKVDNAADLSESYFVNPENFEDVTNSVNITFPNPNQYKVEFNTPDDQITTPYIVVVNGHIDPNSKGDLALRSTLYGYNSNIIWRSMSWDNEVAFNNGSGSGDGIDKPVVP
Method: Peptide 0.6-0.9 mM was injected into a cell with rClfA229-545 in a VP-ITC (MicroCal Inc.). The resulting data was analyzed using Origin 5.0 from MicroCal using a single binding site model.

S. aureus USA300 NARSA = test: Adherence of S. aureus USA300 NARSA to Fg coated microtiter plates (crystal violet, OD 590 nm); type: cell-based; conditions: 1 μg Fg/well, MRSA strain grown over-night in tryptic soy broth (FIG. 7)
Method: Microtiter plates were coated with 1 μg human or salmon Fg per well over-night at 4° C., followed by blocking with 5% bovine serum albumin in TBS-T (Tris-buffered saline with 0.05% Tween-20) in room temperature for about 1 hour. Two bacterial colonies (designated by 1 or 2 in FIG. 7) of S. aureus USA300 NARSA (an MRSA strain) were inoculated in tryptic soy broth at 37° C. over-night, washed and resuspended in PBS and various bacterial dilutions were incubated in the wells for 1 hour at room temperature. After washing in PBS, bound bacteria was fixed using 25% formaldehyde followed by 0.5% crystal violet stain. After PBS washing, 10% acetic acid was added and bound color was measured by crystal violet staining and optical density read at 590 nm in a microtiter plate reader.

ClfA229-545 = ClfA229-545 (Staphylococcus aureus, UniProt Q53653); conditions: 1 μg Fg/well, varying concentrations of ClfA229-545, read at 405 nm (FIG. 6)
Method: About 3 mg lyophilized salmon Fg (batch “A”) was dissolved into 3 mg/ml in PBS. Human and salmon Fg was coated onto 4HBX microtiter plates (1 μg/well) at 4° C. over-night in Dulbecco's PBS without MgCl2 nor CaCl2 ions). The plate was blocked for 1 hour room temperature (RT) using 5% bovine serum albumin (BSA) in TBS-T. Recombinant His-tagged ClfA229-545 was added in varying concentrations to test for binding to Fg using TBS solution for 1 hour at room temperature. Bound ClfA was detected with anti-ClfA rabbit antibodies (dil 1:2000) in TBS-T with 1% BSA followed by goat anti-rabbit secondary antibodies (dil 1:2000) conjugated to alkaline phosphatase using the same buffer. Color detection was read after 30-60 min at 405 nm in a microtiter plate reader using phospatase substrate from Sigma dissolved in 1M DEA. No background subtraction, data points are triplicates except for no ClfA where six data points were used. Human or salmon Fg was coated over-night and after blocking varying concentrations of ClfA was added to Fg.

Substance: GEGQQHHLGGAKQAGDV [human 17-mer peptide]
- pKd (rClfA229-545): 4.64

Substance: GQQHHLGGAKQAGDV [human 15-mer peptide]
- pKd (rClfA229-545): 4.40
- binding to ClfA229-545 (rClfA229-545; ITC, in solution (FIGS. 3A and 3B)): binds to ClfA

Substance: human Fg: human fibrinogen
- binding (adherence) of S. aureus USA300 to coated Fg (S. aureus USA300 NARSA): bound
- binding of ClfA N2N3 to coated Fg (ClfA229-545): dose-dependent binding
